From patent publication US20260041683A1, “Compounds with Anti-Acinetobacter Baumannii Activity” (University of Kentucky Research Foundation, priority 2022, published 2026)
In brackets after ≈: the same amount, converted by molar mass. Like-named read-outs stand apart in the source and are kept apart here.

Key:
[1] = test system: Ab ATCC BAA1605 (strain J, multidrug-resistant); experiment: MIC determination; assay type: cell-based; settings: Acinetobacter baumannii
How it was run: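 Broth double-dilution MIC in Mueller-Hinton broth, 96-well plates, at least in duplicate. Inoculum: colonies grown overnight at 37 °C on MH plates, suspended to OD600 ~0.5 and diluted 1:1000 into serially doubly diluted compound.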

[2] = test system: all 43 strains of A. baumannii (41 CDC strains and 2 ATCC strains); experiment: MIC value statistics for all A. baumannii strains; assay type: cell-based, Acinetobacter baumannii; settings: of 43 A. baumannii strains
How it was run: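 Broth microdilution in MH broth against CDC AR Isolate Bank and ATCC strains. Inoculum from overnight MH plates (37 °C), suspended to OD600 ~0.5, then diluted 1:1000 into serial twofold compound dilutions. Sterile and growth controls included per row.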

[3] = test system: Ab ATCC 19606 (strain I); experiment: MIC determination (double dilution, Mueller-Hinton broth); assay type: cell-based, Acinetobacter baumannii; settings: for MIC: Acinetobacter baumannii, ATCC19606
[4] = test system: Ab strain #305 (CDC and FDA AR Bank); experiment: MIC determination; assay type: cell-based; settings: Acinetobacter baumannii; Ab AR Bank #305
Protocol: (§1) All bacterial strains listed above were stored at −80° C. All strains were streaked on Mueller-Hinton (MH) plates and allowed to grow at 37° C. overnight. Enough colonies were scraped from the plate and suspended in MH broth with vortexing to reach an attenuance at 600 nm (OD600) of ˜0.5. The resulting culture was diluted 1:1000 and added to the prepared serially doubly diluted compound solutions in 96-well plates. For M. smegmatis, a 1:100 dilution of the bacteria was done in MH. All MIC values were determined using 96-well plates with low evaporation seals at least in duplicate. For each row, one well was reserved for sterile control (which consisted of 200 μL of MH medium) and another well was reserved for growth control (which consisted of 100 μL of MH medium seeded with 100 μL of bacterial culture).
(§2) Then all 46 compounds were tested against a broad panel of all 41 Ab strains from the CDC and FDA Antibiotic Resistance (AR) Isolate Bank (Table 2; data shown for 2 representative compounds), which were all highly multidrug-resistant strains, including those resistant to colistin. […] The activity of the monohydrazides was not dependent on the extent (number of resistance mutations) or severity (antibiotic MIC) of resistance. All conclusions made from Table 1 remained valid for all compounds against these 41 additional Ab strains. […] This mechanism of action will be elucidated in the proposed studies.

[5] = test system: Ab strain #280 (CDC and FDA AR Bank); experiment: MIC determination; assay type: cell-based; settings: Acinetobacter baumannii; Ab AR Bank #280
Protocol: as §1, §2

[6] = test system: Ab strain #281 (CDC and FDA AR Bank); experiment: MIC determination; assay type: cell-based; settings: Acinetobacter baumannii; Ab AR Bank #281
Protocol: as §1, §2

[7] = test system: Ab strain #309 (CDC and FDA AR Bank); experiment: MIC determination; assay type: cell-based; settings: Acinetobacter baumannii; Ab AR Bank #309
Protocol: as §1, §2

[8] = test system: Ab strain #279 (CDC and FDA AR Bank); experiment: MIC determination; assay type: cell-based; settings: Acinetobacter baumannii; Ab AR Bank #279
Protocol: as §1, §2

[9] = test system: Ab strain #303 (CDC and FDA AR Bank); experiment: MIC determination; assay type: cell-based; settings: Acinetobacter baumannii; Ab AR Bank #303
Protocol: as §1, §2

[10] = test system: Ab strain #304 (CDC and FDA AR Bank); experiment: MIC determination; assay type: cell-based; settings: Acinetobacter baumannii; Ab AR Bank #304
Protocol: as §1, §2

[11] = test system: Ab strain #276 (CDC and FDA AR Bank); experiment: MIC determination; assay type: cell-based; settings: Acinetobacter baumannii; Ab AR Bank #276
Protocol: as §1, §2

[12] = test system: Ab strain #278 (CDC and FDA AR Bank); experiment: MIC determination; assay type: cell-based; settings: Acinetobacter baumannii; Ab AR Bank #278
Protocol: as §1, §2

[13] = test system: Ab strain #273 (CDC and FDA AR Bank); experiment: MIC determination; assay type: cell-based; settings: Acinetobacter baumannii; Ab AR Bank #273
Protocol: as §1, §2

[14] = test system: Ab strain #288 (CDC and FDA AR Bank); experiment: MIC determination; assay type: cell-based; settings: Acinetobacter baumannii; Ab AR Bank #288
Protocol: as §1, §2

[15] = test system: Ab strain #312 (CDC and FDA AR Bank); experiment: MIC determination; assay type: cell-based; settings: Acinetobacter baumannii; Ab AR Bank #312
Protocol: as §1, §2

[16] = test system: Ab strain #307 (CDC and FDA AR Bank); experiment: MIC determination; assay type: cell-based; settings: Acinetobacter baumannii; Ab AR Bank #307
Protocol: as §1, §2

[17] = test system: Ab strain #274 (CDC and FDA AR Bank); experiment: MIC determination; assay type: cell-based; settings: Acinetobacter baumannii; Ab AR Bank #274
Protocol: as §1, §2

[18] = Table 1, multidrug-resistant strain, read-out: MIC Ab ATCC BAA 1605
[19] = Table 1, control strain, read-out: MIC Ab ATCC 19606

Row | Structure (SMILES) | MIC [1, 18] | number of compound/strain combinations with MIC value 0.25 μg/mL [2] | number of compound/strain combinations with MIC value 0.5 μg/mL [2] | number of compound/strain combinations with MIC value 1 μg/mL [2] | number of compound/strain combinations with MIC value ≤0.125 μg/mL [2] | MIC [3, 19] | MIC [4] | MIC [5] | MIC [6] | MIC [7] | MIC [8] | MIC [9] | MIC [10] | MIC [11] | MIC [12] | MIC [13] | MIC [14] | MIC [15] | MIC [16] | MIC [17] | other results
1 | O=C(NNc1ccc(Cl)cc1)c1ccc(F)cn1 [Compound 3e] | 0.0625 µg/mL (≈ 0.235 µM) | 16 | 10 | 1 | 16 | 1 µg/mL (≈ 3.76 µM) | 0.5 µg/mL (≈ 1.88 µM) | 0.5 µg/mL (≈ 1.88 µM) | 0.5 µg/mL (≈ 1.88 µM) | 0.25 µg/mL (≈ 0.941 µM) | 0.25 µg/mL (≈ 0.941 µM) | 0.13 µg/mL (≈ 0.489 µM) | 0.5 µg/mL (≈ 1.88 µM) | 0.03 µg/mL (≈ 0.113 µM) | 0.25 µg/mL (≈ 0.941 µM) | 0.5 µg/mL (≈ 1.88 µM) | 0.25 µg/mL (≈ 0.941 µM) | 0.5 µg/mL (≈ 1.88 µM) | 0.5 µg/mL (≈ 1.88 µM) | 0.5 µg/mL (≈ 1.88 µM) | MIC ([1]; Table 5, Mueller-Hinton medium, J = A. baumannii BAA1605, read-out: MIC strain J): ≤ 0.125 µg/mL; MIC ([3]; Table 5, Mueller-Hinton medium, I = A. baumannii ATCC 19606, read-out: MIC strain I): 1 µg/mL (≈ 3.76 µM); MIC under conditions used to generate biofilm ([3]; trypticase soy broth (TSB) medium): 0.5 µg/mL (≈ 1.88 µM)
2 | O=C(NNc1cccc(F)c1)c1cnccn1 [Compound 9a] | 0.5 µg/mL (≈ 2.15 µM) | 11 | 18 | 10 | 4 | 0.5 µg/mL (≈ 2.15 µM) | 0.5 µg/mL (≈ 2.15 µM) | 1 µg/mL (≈ 4.31 µM) | 0.5 µg/mL (≈ 2.15 µM) | 0.5 µg/mL (≈ 2.15 µM) | 1 µg/mL (≈ 4.31 µM) | 0.25 µg/mL (≈ 1.08 µM) | ≤ 0.13 µg/mL | 0.5 µg/mL (≈ 2.15 µM) | 1 µg/mL (≈ 4.31 µM) | 1 µg/mL (≈ 4.31 µM) | 1 µg/mL (≈ 4.31 µM) | 0.5 µg/mL (≈ 2.15 µM) | 0.5 µg/mL (≈ 2.15 µM) | 1 µg/mL (≈ 4.31 µM) | 
